From patent publication US20260078120A1, “SUBSTITUTED PYRIDOPYRIMIDINONES” (MIRATI THERAPEUTICS, INC., priority 2022, published 2026)

Legend:
[1] = test system: SKBR3 (PI3Kα wild type) cells; experiment: CellTiter-Glo 2.0 luminescent cell viability assay, 72 hours, SKBR3 cells; format: cell-based; settings: Homo sapiens, SK-BR-3, 72 h, SKBR3 (PI3Kα wild type) cells, CellTiter-Glo, approximately 72 hours; read-out: SKBR3 (WT) Viability IC50
In short: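 Viability measured via CTG luminescence following roughly 72 hours of compound exposure at 37° C. Dosing used a 10 um starting concentration diluted 1:4 over 10 points; percent-of-vehicle data fitted with a variable-slope four-parameter model for IC50.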

[2] = test system: T47D (PI3Kα H1047R mutant) cells; experiment: CellTiter-Glo 2.0 luminescent cell viability assay, 72 hours, T47D cells; format: cell-based; settings: Homo sapiens, T47D, 72 h, T47D (PI3Kα H1047R mutant) cells, CellTiter-Glo, approximately 72 hours; read-out: T47D (H1047R mutant) Viability IC50
In short: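 Viability was measured by CellTiter-Glo 2.0 luminescence after approximately 72 h of compound exposure at 37° C. Plating was 1000 cells per well the day before dosing, with ten 1:4 dilutions from a 10 µM top concentration. Values as percent of vehicle were fitted by variable-slope log(inhibitor) regression to give IC50.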

SMILES | IC50 [1] | IC50 [2]
Cc1cc([C@@H](C)Nc2ccccc2C(=O)O)c2nc(NC[C@@H]3CC3(F)F)c(C#N)c(=O)n2c1 [Example 11-157, 2-(((R)-1-(3-cyano-2-((((S)-2,2-difluorocyclopropyl)methyl)amino)-7-methyl-4-oxo-4H-pyrido[1,2-a]pyrimidin-9-yl)ethyl)amino)benzoic acid] | > 10 µM | 0.221 µM
Cc1cc([C@@H](C)Nc2ccccc2C(=O)O)c2nc(N3CCN(c4cn(C)nc4C#N)CC3)c(C#N)c(=O)n2c1 [Example 11-184, (R)-2-((1-(3-cyano-2-(4-(3-cyano-1-methyl-1H-pyrazol-4-yl)piperazin-1-yl)-7-methyl-4-oxo-4H-pyrido[1,2-a]pyrimidin-9-yl)ethyl)amino)benzoic acid] | > 10 µM | 0.37 µM
Cc1cc([C@@H](C)Nc2ccccc2C(=O)O)c2nc(N3CCN(c4ccc(C(F)(F)F)cc4C#N)C[C@@H]3C)c(C)c(=O)n2c1 [Example 11-80, 2-(((R)-1-(2-((S)-4-(2-cyano-4-(trifluoromethyl)phenyl)-2-methylpiperazin-1-yl)-3,7-dimethyl-4-oxo-4H-pyrido[1,2-a]pyrimidin-9-yl)ethyl)amino)benzoic acid] | > 10 µM | 0.33 µM
Cc1cc([C@@H](C)Nc2ccccc2C(=O)O)c2nc(N3C[C@@H]4C[C@H]3CC4(F)F)c(C)c(=O)n2c1 [Example 11-231, 2-(((R)-1-(2-((1S,4S)-5,5-difluoro-2-azabicyclo[2.2.1]heptan-2-yl)-3,7-dimethyl-4-oxo-4H-pyrido[1,2-a]pyrimidin-9-yl)ethyl)amino)benzoic acid] | > 10 µM | 0.192 µM
CC(Nc1ccccc1C(=O)O)c1cc(C(F)F)cn2c(=O)c(C#N)c(N3CCC(F)(F)CC3)nc12 (stereo not shown) [Example 11-170, 2-((1-(3-cyano-7-(difluoromethyl)-2-(4,4-difluoropiperidin-1-yl)-4-oxo-4H-pyrido[1,2-a]pyrimidin-9-yl)ethyl)amino)benzoic acid] | > 10 µM | 0.167 µM
Cc1cc([C@@H](C)Nc2ccccc2C(=O)O)c2nc(N3CCC(N4CCCCC4=O)CC3)c(C)c(=O)n2c1 [Example 10-3, (R)-2-((1-(3,7-dimethyl-4-oxo-2-(2-oxo-[1,4′-bipiperidin]-1′-yl)-4H-pyrido[1,2-a]pyrimidin-9-yl)ethyl)amino)benzoic acid] | > 10 µM | 0.00812 µM

More lines, now with the values ahead:

IC50 [1] | IC50 [2] | SMILES
> 10 µM | 0.168 µM | Cc1cc([C@@H](C)Nc2ccc(F)cc2C(=O)O)c2nc(N3CCCCC3)c(C#N)c(=O)n2c1 [Example 11-293, (R)-2-((1-(3-cyano-7-methyl-4-oxo-2-(piperidin-1-yl)-4H-pyrido[1,2-a]pyrimidin-9-yl)ethyl)amino)-5-fluorobenzoic acid]
> 10 µM | 3.01 µM | Cc1cc([C@@H](C)Nc2ccccc2C(=O)O)c2nc(N3CCn4cc(C(F)(F)F)nc4C3)c(C)c(=O)n2c1 [Example 11-433, (R)-2-((1-(3,7-dimethyl-4-oxo-2-(2-(trifluoromethyl)-5,6-dihydroimidazo[1,2-a]pyrazin-7(8H)-yl)-4H-pyrido[1,2-a]pyrimidin-9-yl)ethyl)amino)benzoic acid]
> 10 µM | > 10 µM | C[C@H](Nc1ccccc1C(=O)O)c1cccn2c(=O)cc(N3CCCCC3)nc12 [Example 11-423, (S)-2-((1-(4-oxo-2-(piperidin-1-yl)-4H-pyrido[1,2-a]pyrimidin-9-yl)ethyl)amino)benzoic acid]
> 10 µM | 9.52 µM | Cc1cc(C(C)Nc2ccccc2C(=O)O)c2nc(N3CCN(c4ccc(CN)cc4)CC3)cc(=O)n2c1 (stereo not shown) [Example 11-257, 2-((1-(2-(4-(4-(aminomethyl)phenyl)piperazin-1-yl)-7-methyl-4-oxo-4H-pyrido[1,2-a]pyrimidin-9-yl)ethyl)amino)benzoic acid]
> 10 µM | 0.0747 µM | Cc1cc(C(C)Nc2ccc(F)nc2C(=O)O)c2nc(N3Cc4ccccc4C3)c(C)c(=O)n2c1 (stereo not shown) [Example 11-352, 6-fluoro-3-((1-(2-(isoindolin-2-yl)-3,7-dimethyl-4-oxo-4H-pyrido[1,2-a]pyrimidin-9-yl)ethyl)amino)picolinic acid]
